Laboratory results as given in US10738028B2, “Spiro three-membered ring, spiro five-membered ring peptide deformylase inhibitor and use thereof in antibacteria and anti-tumor” (priority 2016, dated 2020).

Legend:
Type in all cases: cell-based
[1] = test system: BEL-7402 liver cancer cell line; assay: CCK-8 proliferation inhibition; conditions: concentration of 30 μM, 72 hours, 30 µM
Procedure, shortened: (§1)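 Plating at 2000 cells/well, then incubation overnight at 37° C. Next, a range of compound concentrations for 72 hours (control 1‰ DMSO). Finally, medium decanted and CCK-8 diluted 1:10 added.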

[2] = test system: A549 lung cancer cell line; assay: CCK-8 proliferation inhibition; conditions: concentration of 30 μM
Procedure, shortened: as §1

[3] = test system: MGC-803 gastric cancer cell line; assay: CCK-8 proliferation inhibition; conditions: concentration of 30 μM
Procedure, shortened: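 CCK-8 read-out after 72 h drug exposure; 2000 cells/well, overnight pre-culture (37° C, 5% CO2); vehicle 1‰ DMSO. Media: PC3 F12; MGC-803/Jurkat 1640; MCF-7 DMEM high glucose; all +10% newborn bovine serum, 1% antibiotics.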

[4] = test system: Enterococcus faecalis (EFA); assay: MIC, two-fold agar dilution (CLSI), clinical isolates
Procedure, shortened: (§2)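 Samples are serially diluted two-fold in agar following CLSI guidance. Plates are then inoculated with the tested strains. The lowest inhibiting concentration is recorded as MIC.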

[5] = test system: Moraxella catarrhalis (BCA); assay: as above
Procedure, shortened: as §2

[6] = test system: methicillin-sensitive Staphylococcus aureus (MSSA); assay: as above
Procedure, shortened: as §2

[7] = test system: Escherichia coli (including ESBLs, non-ESBLs); assay: as above
Procedure, shortened: as §2

[8] = test system: methicillin-resistant Staphylococcus aureus (MRSA); assay: as above
Procedure, shortened: as §2

[9] = test system: Enterococcus faecium (EFM); assay: as above
Procedure, shortened: as §2

[10] = test system: methicillin-sensitive Staphylococcus epidermidis (MSSE); assay: as above
Procedure, shortened: as §2

[11] = test system: Streptococcus pneoumoniae (SPN); assay: as above
Procedure, shortened: as §2

[12] = test system: methicillin-resistant Staphylococcus epidermidis (MRSE); assay: as above
Procedure, shortened: as §2

[13] = MIC in vitro anti-bacterial experiments, Gram-positive bacteria; conditions: lowest MIC reached; read-out: minimum inhibitory concentration against Gram-positive bacteria
Text: 1. The invention adopts the two-fold agar dilution method recommended by the operating procedure of antimicrobial susceptibility testing set by American Clinical and Laboratory Standards Institute (CLSI) to determine the Minimum Inhibitory Concentration (MIC) of the test samples against the tested strains.

[14] = test system: HCT-116 colorectal cancer cell line; assay: CCK-8 proliferation inhibition; conditions: concentration of 30 μM; 72 hours; CCK-8; 30 µM
Procedure, shortened: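 2000 cells/well, McCoy's 5A + 10% newborn bovine serum; overnight attach, 37° C./5% CO2. Cpd from DMSO stock diluted in medium, 72 h. Readout: CCK-8 (1:10). Ctrl 1‰ DMSO.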

O=C(C[C@@H](CC1CCCC1)C(=O)N1CC2(CC2)C[C@H]1C(=O)Nc1nccs1)NO [Example 72, (S)-5-((R)-2-(cyclopentylmethyl)-4-(hydroxyamino)-4-oxobutanoyl)-N-(thiazol-2-yl)-5-azaspiro[2.4]heptane-6-carboxamide]
0.03 µg/mL: Anti-bacterial activity (MIC), strain MSSA 15-5 ([6]; clinical isolate MSSA 15-5) | Anti-bacterial activity (MIC), strain MRSE 15-1 ([12]; clinical isolate MRSE 15-1)
63%: Inhibition of proliferation, Gastric cancer MGC-803 ([3]; 72 hours, 30 µM)
50%: Inhibition of proliferation, Lung cancer A549 ([2]; 72 hours, 30 µM)
0.5 µg/mL: Anti-bacterial activity (MIC) ([5]; strain BCA 14-4) | Anti-bacterial activity (MIC) ([5]; strain BCA 14-7) | Anti-bacterial activity (MIC) ([9]; strain EFM 15-4) | Anti-bacterial activity (MIC) ([9]; strain EFM 15-6) | Anti-bacterial activity (MIC) ([11]; strain SPN 16-2)
16 µg/mL: Anti-bacterial activity (MIC), strain MSSA 15-6 ([6]; clinical isolate MSSA 15-6) | Anti-bacterial activity (MIC), strain ECO+ 15-1 ([7]; clinical isolate ECO+ 15-1) | Anti-bacterial activity (MIC), strain ECO+ 15-2 ([7]; clinical isolate ECO+ 15-2) | Anti-bacterial activity (MIC), strain ECO+ 15-3 ([7]; clinical isolate ECO+ 15-3) | Anti-bacterial activity (MIC), strain ECO+ 15-4 ([7]; clinical isolate ECO+ 15-4) | Anti-bacterial activity (MIC), strain ECO− 15-1 ([7]; clinical isolate ECO− 15-1) | Anti-bacterial activity (MIC), strain ECO− 15-2 ([7]; clinical isolate ECO− 15-2) | Anti-bacterial activity (MIC), strain ECO− 15-3 ([7]; clinical isolate ECO− 15-3) | Anti-bacterial activity (MIC), strain ECO− 15-4 ([7]; clinical isolate ECO− 15-4)
0.25 µg/mL: Anti-bacterial activity (MIC) ([5]; strain BCA 14-1) | Anti-bacterial activity (MIC) ([5]; strain BCA 14-8) | Anti-bacterial activity (MIC) ([11]; strain SPN 16-4)
76%: Inhibition of proliferation, Liver cancer BEL-7402 [1]
< 0.008 µg/mL: Anti-bacterial activity (MIC), strain MSSE 15-6 ([10]; clinical isolate MSSE 15-6) | MIC [13]
> 50%: inhibition at 30 µM ([2]; Homo sapiens, A549, 72 h) | inhibition at 30 µM ([3]; Homo sapiens, MGC-803, 72 h)
0.06 µg/mL: Anti-bacterial activity (MIC), strain MSSA 15-4 ([6]; clinical isolate MSSA 15-4) | Anti-bacterial activity (MIC), strain MRSA 15-1 ([8]; clinical isolate MRSA 15-1) | Anti-bacterial activity (MIC), strain MRSA 15-3 ([8]; clinical isolate MRSA 15-3) | Anti-bacterial activity (MIC), strain MSSE 15-3 ([10]; clinical isolate MSSE 15-3)
32 µg/mL: Anti-bacterial activity (MIC) ([4]; strain EFA 15-1) | Anti-bacterial activity (MIC) ([4]; strain EFA 15-2) | Anti-bacterial activity (MIC) ([4]; strain EFA 15-3) | Anti-bacterial activity (MIC) ([4]; strain EFA 15-4) | Anti-bacterial activity (MIC) ([4]; strain EFA 15-5) | Anti-bacterial activity (MIC) ([4]; strain EFA 15-6) | Anti-bacterial activity (MIC) ([9]; strain EFM 15-1) | Anti-bacterial activity (MIC) ([9]; strain EFM 15-2) | Anti-bacterial activity (MIC) ([9]; strain EFM 15-3)
2 µg/mL: Anti-bacterial activity (MIC) ([4]; strain EFA 15-9)
75%: HCT116 inhibition rate/% [14]
0.125 µg/mL: Anti-bacterial activity (MIC) ([5]; strain BCA 14-5) | Anti-bacterial activity (MIC) ([5]; strain BCA 14-6) | Anti-bacterial activity (MIC) ([5]; strain BCA 14-10) | Anti-bacterial activity (MIC), strain MSSA 15-3 ([6]; clinical isolate MSSA 15-3) | Anti-bacterial activity (MIC), strain MRSA 15-2 ([8]; clinical isolate MRSA 15-2) | Anti-bacterial activity (MIC), strain MRSA 15-4 ([8]; clinical isolate MRSA 15-4) | Anti-bacterial activity (MIC) ([9]; strain EFM 15-5) | Anti-bacterial activity (MIC), strain MSSE 15-4 ([10]; clinical isolate MSSE 15-4) | Anti-bacterial activity (MIC), strain MSSE 15-5 ([10]; clinical isolate MSSE 15-5) | Anti-bacterial activity (MIC), strain MRSE 15-2 ([12]; clinical isolate MRSE 15-2) | Anti-bacterial activity (MIC), strain MRSE 15-3 ([12]; clinical isolate MRSE 15-3) | Anti-bacterial activity (MIC), strain MRSE 15-7 ([12]; clinical isolate MRSE 15-7)
